What was measured:
[1] = Body weight of C57BL/6 mice bearing MC38 tumors (Example 9); assay type: in vivo, Mus musculus; details: C57BL/6, MC38, 2 μmol/kg S.C. QD
Protocol: The treatments were started when the mean tumor size reached 79-118 mm^3 (average tumor size 96 mm^3). Each group contained 8 tumor bearing mice. Group 1 was treated with Vehicle (10% DMSO+90% Saline), S.C., QD. Group 2 was given treatments with reference compound A at 2 μmol/kg, S.C., QD. Group 3 was given treatments with compound 2 at 2 μmol/kg, S.C., QD.
(§1) In vivo efficacy was examined according to absolute tumor growth inhibition (TGI) and the safety was evaluated according to weight change and survival in mice.

[2] = tested on: MC38 tumor cells; experiment: Anti-tumor efficacy in MC38 model in CES1c -/- mouse (Example 10); assay type: in vivo; details: for TV (mm^3) (Mean ± SEM) D6 / TV (mm^3) (Mean ± SEM) D9 / TV (mm^3) (Mean ± SEM) D12 / TV (mm^3) (Mean ± SEM) D15 / TV (mm^3) (Mean ± SEM) D20 / TV (mm^3) (Mean ± SEM) D23 / T/C (%) / TGI (%) / TV (mm^3) (Mean ± SEM) D26: MC38, 2 μmol/kg S.C. QD; for T/C (%) / TGI (%) / TV (mm^3) (Mean ± SEM) D26 / TV (mm^3) at D26 (Mean ± SEM): D26; for TV (mm^3) at D26 (Mean ± SEM): Table 9, MC38, 2 μmol/kg S.C. QD
Protocol: (§2) Animal species: Mus musculus; Strain: C57BL/6-Ces1c^emISmoc; Age: 6-8 weeks; Sex: female. (Shanghai Model Organisms). The MC38 tumor cells were maintained in vitro in DMEM medium supplemented with 10% FBS at 37° C., 5% CO2. The cells growing in an exponential growth phase were harvested and counted for tumor inoculation. The culture MC38 were harvested, re-suspended in PBS containing 50% Matrigel at a density of 1×10^7 cells/mL. Each mouse was inoculated subcutaneously in the right flank region with 1×10^6 in 0.1 mL of PBS containing 50% Matrigel for tumor development.
The treatments were started when the mean tumor size reached 52-132 mm^3 (average tumor size 95 mm^3). Each group contained 5 tumor bearing mice. Group 1 was treated with Vehicle (10% DMSO+90% Saline), S.C., QD(Subcutaneous injection, quaque die).
as §1
(§3) Statistical analysis of difference in tumor volume among the groups was performed using one-way ANOVA followed by individual comparisons using Games-Howell post-hoc test (equal variance not assumed). All data was analyzed using SPSS 22.0 software.

[3] = tested on: MC38 tumor cells; experiment: Anti-tumor efficacy in MC38 model in C57BL/6 mouse (Example 11); assay type: in vivo; details: C57BL/6, MC38, 2 μmol/kg S.C. QD
Protocol: as §2, with “C57BL/6;” for “C57BL/6-Ces1c^emISmoc;”, “female.” for “female. (Shanghai Model Organisms).”, “1×10^6 cells” for “1×10^6”
The treatments were started when the mean tumor size reached 82-129 mm^3 (average tumor size 102 mm^3). Each group contained 6 tumor bearing mice. Group 1 was treated with Vehicle (10% DMSO+90% Saline), S.C., QD.
as §1, §3

[4] = Body weight of C57BL/6 mice bearing MC38 tumors (Example 11); assay type: in vivo, Mus musculus; details: C57BL/6, MC38, 2 μmol/kg S.C. QD
Protocol: The treatments were started when the mean tumor size reached 82-129 mm^3 (average tumor size 102 mm^3). Each group contained 6 tumor bearing mice. Group 1 was treated with Vehicle (10% DMSO+90% Saline), S.C., QD. Group 2 was given treatments with compound 2 at 2 μmol/kg, S.C., QD. Group 3 was given treatments with compound 81 at 2 μmol/kg, S.C., QD. Group 4 was given treatments with compound 443 at 2 μmol/kg, S.C., QD. Group 5 was given treatments with compound 459 at 2 μmol/kg, S.C., QD. Group 6 was given treatments with compound 3 at 2 μmol/kg, S.C., QD.
as §1

[5] = Solubility in water, remark in the synthesis example; assay type: physicochemical; details: remark on the isolated product

Compound: CC(=O)N[C@@H](Cc1c[nH]c2ccccc12)C(=O)N[C@@H](CCC(=O)C=[N+]=[N-])C(=O)OC(C)C [Reference compound A, reference compound]
- BW(g) (Mean ± SEM) Beginning (D6) [1]: 21.9 ± 0.3 g
- BW Change (%) ([1]; D6 to D21): +2.8%
- BW(g) (Mean ± SEM) End (D21) [1]: 22.5 ± 0.4 g
- TV (mm^3) (Mean ± SEM) D6 [2]: 95 ± 6 mm^3
- TV (mm^3) (Mean ± SEM) D9 [2]: 275 ± 33 mm^3
- TV (mm^3) (Mean ± SEM) D12 [2]: 147 ± 5 mm^3
- TV (mm^3) (Mean ± SEM) D15 [2]: 195 ± 23 mm^3
- TV (mm^3) (Mean ± SEM) D20 [2]: 196 ± 33 mm^3
- TV (mm^3) (Mean ± SEM) D23 [2]: 183 ± 33 mm^3
- T/C (%) [2]: 12.3%
- TGI (%) [2]: 87.7%
- TV (mm^3) (Mean ± SEM) D26 [2]: 274 ± 81 mm^3
- TV (mm^3) at D26 (Mean ± SEM) [2]: 274 ± 81 mm^3

Compound: CO[C@@H](C)C(=O)N[C@@H](CCC(=O)C=[N+]=[N-])C(=O)OC(C)C [Compound 2, isopropyl (S)-6-diazo-2-((S)-2-methoxypropanamido)-5-oxohexanoate]
- BW(g) (Mean ± SEM) Beginning (D6) [1]: 21.7 ± 0.2 g
- BW(g) (Mean ± SEM) End (D21) [1]: 22.4 ± 0.2 g
- TV (mm^3) (Mean ± SEM) D6 [2]: 95 ± 11 mm^3
- TV (mm^3) (Mean ± SEM) D9 [2]: 193 ± 20 mm^3
- TV (mm^3) (Mean ± SEM) D12 [2]: 103 ± 15 mm^3
- TV (mm^3) (Mean ± SEM) D15 [2]: 131 ± 21 mm^3
- TV (mm^3) (Mean ± SEM) D20 [2]: 169 ± 19 mm^3
- TV (mm^3) (Mean ± SEM) D23 [2]: 219 ± 21 mm^3
- T/C (%) [2]: 14.0%
- TGI (%) [2]: 86.0%
- TV (mm^3) (Mean ± SEM) D26 [2]: 313 ± 35 mm^3
- TV (mm^3) at D26 (Mean ± SEM) [2]: 313 ± 35 mm^3
- T/C (%) ([3]; Example 11): 17.5%
- TGI (%) ([3]; Example 11): 82.5%
- TV (mm^3) (Mean ± SEM) D6 ([3]; Example 11, D6): 102 ± 7 mm^3
- TV (mm^3) (Mean ± SEM) D10 ([3]; Example 11, D10): 167 ± 17 mm^3
- TV (mm^3) (Mean ± SEM) D13 ([3]; Example 11, D13): 257 ± 51 mm^3
- TV (mm^3) (Mean ± SEM) D17 ([3]; Example 11, D17): 306 ± 43 mm^3
- TV (mm^3) (Mean ± SEM) D20 ([3]; Example 11, D20): 407 ± 33 mm^3
- TV (mm^3) at D21 (Mean ± SEM) ([3]; Table 13, D21): 407 ± 33 mm^3
- BW(g) (Mean ± SEM) Beginning (D6) ([4]; D6): 19.8 ± 0.2 g
- BW Change (%) ([4]; D6 to D20): +6.4%
- BW(g) (Mean ± SEM) End (D20) ([4]; D20): 21.1 ± 0.3 g
- solubility in water [5]: easily dissolved in water

Reference: patent US12577201B2, “Glutamine analogs” (Jacobio Pharmaceuticals Co., Ltd., priority 2020, dated 2026)
